# Patent US11312712B2, “Azabenzimidazoles and their use as AMPA receptor modulators” (Janssen Pharmaceutica NV, priority 2015, dated 2022)
# pIC50: −log10 of the molar value.
# Biological target: GluA1o-γ8 (GRIA1o-CACNG8 fusion construct) (Homo sapiens (Human), UniProt P42261+Q8WXS5)
# Assay: Calcium flux assay (FLIPR), inhibition of TARP γ8 dependent AMPA receptor activity
# Type: cell-based
# Conditions: GluA1o-γ8 (GRIA1o-CACNG8 fusion) in HEK293 cells, calcium flux after 15 μM glutamate
# Method in brief: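 HEK293 cells stably expressing a 1:1 GRIA1o–CACNG8 fusion were loaded with Calcium-5/6 dye plus compound in pH 7.4 HEPES-buffered saline. FLIPR calcium flux after 15 μM glutamate was normalized to untreated and 10 μM CP465022 controls, and a four-parameter logistic fit gave pIC50.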
# Chain of GluA1o-γ8 (GRIA1o-CACNG8 fusion construct) (P42261 other isoform, or with tags, fused parts or gaps): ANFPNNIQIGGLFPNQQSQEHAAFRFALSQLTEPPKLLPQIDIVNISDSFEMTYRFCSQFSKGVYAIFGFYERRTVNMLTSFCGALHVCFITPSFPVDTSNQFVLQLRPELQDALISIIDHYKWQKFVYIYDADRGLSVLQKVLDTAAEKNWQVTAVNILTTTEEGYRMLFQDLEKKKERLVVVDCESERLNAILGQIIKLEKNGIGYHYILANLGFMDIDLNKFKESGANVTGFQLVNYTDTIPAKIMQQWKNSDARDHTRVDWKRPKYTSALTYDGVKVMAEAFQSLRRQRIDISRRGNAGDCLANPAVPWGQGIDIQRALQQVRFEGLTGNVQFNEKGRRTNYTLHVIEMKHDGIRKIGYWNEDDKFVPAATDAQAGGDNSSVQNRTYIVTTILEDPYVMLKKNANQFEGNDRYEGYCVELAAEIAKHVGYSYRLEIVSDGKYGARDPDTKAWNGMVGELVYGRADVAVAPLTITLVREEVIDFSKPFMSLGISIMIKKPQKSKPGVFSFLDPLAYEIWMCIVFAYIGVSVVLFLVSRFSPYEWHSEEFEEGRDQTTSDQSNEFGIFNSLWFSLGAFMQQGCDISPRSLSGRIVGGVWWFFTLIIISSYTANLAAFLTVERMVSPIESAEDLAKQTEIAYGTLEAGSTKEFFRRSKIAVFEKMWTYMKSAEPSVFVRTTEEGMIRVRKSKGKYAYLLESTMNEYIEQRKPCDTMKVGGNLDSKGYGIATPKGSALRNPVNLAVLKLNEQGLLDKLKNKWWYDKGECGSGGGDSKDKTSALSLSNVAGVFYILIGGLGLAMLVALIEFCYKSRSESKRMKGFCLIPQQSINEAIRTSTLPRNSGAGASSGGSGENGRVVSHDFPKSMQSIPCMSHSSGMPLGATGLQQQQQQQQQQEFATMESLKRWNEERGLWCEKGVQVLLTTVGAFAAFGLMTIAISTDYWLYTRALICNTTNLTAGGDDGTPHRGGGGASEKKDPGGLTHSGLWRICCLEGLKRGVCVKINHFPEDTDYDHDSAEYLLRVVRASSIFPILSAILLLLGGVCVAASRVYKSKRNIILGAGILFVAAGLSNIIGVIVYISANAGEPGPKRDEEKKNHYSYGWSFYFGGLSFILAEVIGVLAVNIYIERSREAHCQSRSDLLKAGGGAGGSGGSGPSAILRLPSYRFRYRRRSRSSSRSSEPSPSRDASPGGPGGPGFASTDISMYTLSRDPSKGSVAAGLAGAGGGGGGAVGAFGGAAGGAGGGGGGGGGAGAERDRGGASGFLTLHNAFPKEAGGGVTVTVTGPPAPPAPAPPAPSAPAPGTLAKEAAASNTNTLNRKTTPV
row,pIC50,Structure (SMILES)
1,8.60,"O=C1Cc2cc(-n3c(C(F)(F)F)nc4ccc(C(F)F)nc43)ccc2N1 [Example 153, 5-[5-(Difluoromethyl)-2-(trifluoromethyl)imidazo[4,5-b]pyridin-3-yl]indolin-2-one]"
2,8.30,"CC(F)(F)c1nc2ccc(C(F)F)nc2n1-c1ccc2c(c1)CC(=O)N2 [Example 154, 5-[2-(1-Difluoroethyl)-5-(difluoromethyl)imidazo[4,5-b]pyridin-3-yl]indolin-2-one]"
3,7.40,"CSc1ccc2nc(-c3ccc(F)cc3)n(-c3ccc4[nH]ccc4c3)c2n1 [Example 155, 2-(4-Fluorophenyl)-3-(1H-indol-5-yl)-5-methylsulfanyl-imidazo[4,5-b]pyridine]"
4,7.60,"Oc1ccc2nc(-c3ccccc3)n(-c3ccc4[nH]ncc4c3)c2n1 [Example 156, 3-(1H-Indazol-5-yl)-2-phenyl-imidazo[4,5-b]pyridin-5-ol]"
5,7.90,"COc1ccc2nc(C3CC3)n(-c3ccc4[nH]ncc4c3)c2n1 [Example 157, 2-Cyclopropyl-3-(1H-indazol-5-yl)-5-methoxy-imidazo[4,5-b]pyridine]"
6,7.50,"CCc1nc2ccc(C(F)(F)F)nc2n1-c1ccc2[nH]c(=O)oc2c1 [Example 158, 6-[2-Ethyl-5-(trifluoromethyl)imidazo[4,5-b]pyridin-3-yl]-3H-1,3-benzoxazol-2-one]"
7,7.80,"CC(C)c1nc2ccc(C(F)(F)F)nc2n1-c1ccc2[nH]c(=O)oc2c1 [Example 159, 6-[2-Isopropyl-5-(trifluoromethyl)imidazo[4,5-b]pyridin-3-yl]-3H-1,3-benzoxazol-2-one]"
8,6.00,"O=c1[nH]c2ccc(-n3c(C4CCOCC4)nc4ccc(C(F)(F)F)nc43)cc2o1 [Example 160, 6-[2-Tetrahydropyran-4-yl-5-(trifluoromethyl)imidazo[4,5-b]pyridin-3-yl]-3H-1,3-benzoxazol-2-one]"
9,6.20,"CCOCc1nc2ccc(C(F)(F)F)nc2n1-c1ccc2[nH]c(=O)oc2c1 [Example 162, 6-[2-(Ethoxymethyl)-5-(trifluoromethyl)imidazo[4,5-b]pyridin-3-yl]-3H-1,3-benzoxazol-2-one]"
10,6.80,"CC(C)(C)c1nc2ccc(C(F)(F)F)nc2n1-c1ccc2[nH]c(=O)oc2c1 [Example 163, 6-[2-tert-Butyl-5-(trifluoromethyl)imidazo[4,5-b]pyridin-3-yl]-3H-1,3-benzoxazol-2-one]"
11,8.90,"O=C1Cc2cc(-n3c(-c4ccnc(F)c4)nc4ccc(C(F)(F)F)nc43)ccc2N1 [Example 164, 5-[2-(2-Fluoro-4-pyridyl)-5-(trifluoromethyl)imidazo[4,5-b]pyridin-3-yl]indolin-2-one]"
12,8.80,"Fc1cc(-c2nc3ccc(C(F)(F)F)nc3n2-c2ccc3[nH]ncc3c2)ccn1 [Example 165, 2-(2-Fluoro-4-pyridyl)-3-(1H-indazol-5-yl)-5-(trifluoromethyl)imidazo[4,5-b]pyridine]"
13,8.00,"O=C1Cc2cc(-n3c(C4CC(F)C4)nc4ccc(C(F)(F)F)nc43)ccc2N1 (centres unmarked) [Example 166, 5-[2-(3-Fluorocyclobutyl)-5-(trifluoromethyl)imidazo[4,5-b]pyridin-3-yl]indolin-2-one]"
14,8.70,"CC[C@@H](C)c1nc2ccc(C(F)(F)F)nc2n1-c1ccc2[nH]ncc2c1 [Example 167, (R)-3-(1H-Indazol-5-yl)-2-sec-butyl-5-(trifluoromethyl)imidazo[4,5-b]pyridine]"
15,8.20,"CC[C@H](C)c1nc2ccc(C(F)(F)F)nc2n1-c1ccc2[nH]ncc2c1 [Example 168, (S)-3-(1H-Indazol-5-yl)-2-sec-butyl-5-(trifluoromethyl)imidazo[4,5-b]pyridine]"
16,8.50,"Fc1ccc(-c2nc3ccc(C(F)(F)F)nc3n2-c2ccc3[nH]ncc3c2)nc1 [Example 169, 2-(5-Fluoro-2-pyridyl)-3-(1H-indazol-5-yl)-5-(trifluoromethyl)imidazo[4,5-b]pyridine]"
17,9.20,"CC(C)c1ccc2nc(C(F)(F)F)n(-c3ccc4[nH]ncc4c3)c2n1 [Example 170, 3-(1H-Indazol-5-yl)-5-isopropyl-2-(trifluoromethyl)imidazo[4,5-b]pyridine]"
18,8.50,"CC(C)(C)c1ccc2nc(C(F)(F)F)n(-c3ccc4[nH]ncc4c3)c2n1 [Example 171, 5-tert-Butyl-3-(1H-indazol-5-yl)-2-(trifluoromethyl)imidazo[4,5-b]pyridine]"
19,5.40,"CC(C)NC(=O)c1nc2ccc(C(F)(F)F)nc2n1-c1ccc2[nH]ncc2c1 [Example 172, 3-(1H-Indazol-5-yl)-N-isopropyl-5-(trifluoromethyl)imidazo[4,5-b]pyridine-2-carboxamide]"

# Second part, the compound before the results:
row,Structure (SMILES),pIC50
1,"FC(F)(F)c1ccc2nc(NC3CCCCC3)n(-c3ccc4[nH]ncc4c3)c2n1 [Example 131, N-Cyclohexyl-3-(1H-indazol-5-yl)-5-(trifluoromethyl)imidazo[4,5-b]pyridin-2-amine]",6.80
2,"O=c1[nH]c2ccc(-n3c(C4CCC4)nc4ccc(C(F)(F)F)nc43)cc2s1 [Example 132, 6-[2-Cyclobutyl-5-(trifluoromethyl)imidazo[4,5-b]pyridin-3-yl]-3H-1,3-benzothiazol-2-one]",10.20
3,"Cc1cc(N2CCOCC2)c2nc(C3CCC3)n(-c3ccc4[nH]c(=O)sc4c3)c2n1 [Example 133, 6-(2-Cyclobutyl-5-methyl-7-morpholino-imidazo[4,5-b]pyridin-3-yl)-3H-1,3-benzothiazol-2-one]",9.00
4,"O=c1[nH]c2ccc(-n3c(C(F)(F)F)nc4ccc(C(F)(F)F)nc43)cc2s1 [Example 134, 6-[2,5-Bis(trifluoromethyl)imidazo[4,5-b]pyridin-3-yl]-3H-1,3-benzothiazol-2-one]",10.10
5,"Cc1ccnc2c1nc(C1CC1)n2-c1ccc2[nH]c(=O)sc2c1 [Example 135, 6-(2-Cyclopropyl-7-methyl-imidazo[4,5-b]pyridin-3-yl)-3H-1,3-benzothiazol-2-one]",7.10
6,"Cc1cc(N2CCOCC2)c2nc(C3CC3)n(-c3ccc4[nH]c(=O)sc4c3)c2n1 [Example 136, 6-(2-Cyclopropyl-5-methyl-7-morpholino-imidazo[4,5-b]pyridin-3-yl)-3H-1,3-benzothiazol-2-one]",8.30
7,"Cc1cc(Cl)nc2c1nc(C1CCC1)n2-c1ccc2[nH]ncc2c1 [Example 137, 5-Chloro-2-cyclobutyl-3-(1H-indazol-5-yl)-7-methyl-imidazo[4,5-b]pyridine]",9.30
8,"FC(F)(F)c1ccc2nc(C3CCC3)n(-c3cc(Br)c4[nH]ncc4c3)c2n1 [Example 138, 3-(7-Bromo-1H-indazol-5-yl)-2-cyclobutyl-5-(trifluoromethyl)imidazo[4,5-b]pyridine]",10.70
9,"Cc1ccc2nc(C(F)(F)F)n(-c3ccc4c(c3)CC(=O)N4)c2n1 [Example 139, 5-[5-Methyl-2-(trifluoromethyl)imidazo[4,5-b]pyridin-3-yl]indolin-2-one]",7.40
10,"O=C1Cc2cc(-n3c(C4CC4)nc4ccc(C(F)F)nc43)ccc2N1 [Example 140, 5-[2-Cyclopropyl-5-(difluoromethyl)imidazo[4,5-b]pyridin-3-yl]indolin-2-one]",8.60
11,"CC(C)c1nc2ccc(C(F)F)nc2n1-c1ccc2c(c1)CC(=O)N2 [Example 141, 5-[5-(Difluoromethyl)-2-isopropyl-imidazo[4,5-b]pyridin-3-yl]indolin-2-one]",8.90
12,"Cc1ccc2nc(C(F)(F)F)n(-c3ccc4[nH]c(=O)sc4c3)c2n1 [Example 142, 6-[5-Methyl-2-(trifluoromethyl)imidazo[4,5-b]pyridin-3-yl]-3H-1,3-benzothiazol-2-one]",8.80
13,"Cc1ccc2nc(C3CC3)n(-c3ccc4[nH]c(=O)sc4c3)c2n1 [Example 143, 6-(2-Cyclopropyl-5-methyl-imidazo[4,5-b]pyridin-3-yl)-3H-1,3-benzothiazol-2-one]",9.00
14,"Cc1ccc2nc(C(C)C)n(-c3ccc4[nH]c(=O)sc4c3)c2n1 [Example 144, 6-(2-Isopropyl-5-methyl-imidazo[4,5-b]pyridin-3-yl)-3H-1,3-benzothiazol-2-one]",8.80
15,"Cc1ccc2nc(C3CCC3)n(-c3ccc4[nH]c(=O)sc4c3)c2n1 [Example 145, 6-(2-Cyclobutyl-5-methyl-imidazo[4,5-b]pyridin-3-yl)-3H-1,3-benzothiazol-2-one]",9.60
16,"Cc1ccc2nc(C(C)(F)F)n(-c3ccc4c(c3)CC(=O)N4)c2n1 [Example 146, 5-[2-(1,1-Difluoroethyl)-5-methyl-imidazo[4,5-b]pyridin-3-yl]indolin-2-one]",7.40
17,"Cc1ccc2nc(C3CC3)n(-c3ccc4[nH]ncc4c3)c2n1 [Example 147, 2-Cyclopropyl-3-(1H-indazol-5-yl)-5-methyl-imidazo[4,5-b]pyridine]",8.00
18,"Cc1ccc2nc(C(C)C)n(-c3ccc4[nH]ncc4c3)c2n1 [Example 148, 3-(1H-Indazol-5-yl)-2-isopropyl-5-methyl-imidazo[4,5-b]pyridine]",8.10
19,"Cc1ccc2nc(C3CCC3)n(-c3ccc4[nH]ncc4c3)c2n1 [Example 149, 2-Cyclobutyl-3-(1H-indazol-5-yl)-5-methyl-imidazo[4,5-b]pyridine]",9.10
20,"Cc1ccc2nc(C(C)(F)F)n(-c3ccc4[nH]c(=O)sc4c3)c2n1 [Example 150, 6-[2-(1,1-Difluoroethyl)-5-methyl-imidazo[4,5-b]pyridin-3-yl]-3H-1,3-benzothiazol-2-one]",8.80
21,"Cc1ccc2nc(C(F)(F)F)n(-c3ccc4[nH]ncc4c3)c2n1 [Example 151, 3-(1H-Indazol-5-yl)-5-methyl-2-(trifluoromethyl)imidazo[4,5-b]pyridine]",7.90
22,"Cc1ccc2nc(C(C)(F)F)n(-c3ccc4[nH]ncc4c3)c2n1 [Example 152, 2-(1,1-Difluoroethyl)-3-(1H-indazol-5-yl)-5-methyl-imidazo[4,5-b]pyridine]",7.40
